The values below come from PMC11010885, “Functional Analysis and Tissue-Specific Expression of Calcitonin and CGRP with RAMP-Modulated Receptors CTR and CLR in Chickens” (Animals : an Open Access Journal from MDPI, 2024).

Some results are limits rather than exact numbers.

Holding throughout (format): cell-based
The test system of assay [1] is chicken CTR + RAMP3. The experiment in a line: cAMP/PKA pGL3-CRE-luciferase reporter assay, CTR + RAMP3 in CHO cells. Conditions: 10^−12 M to 10^−6 M, 6 h, mean ± SEM, n = 3, read-out: EC50, cAMP/PKA signaling pathway. On the procedure: (§1) Chinese hamster ovary (CHO) cells were cultured in Dulbecco’s modified Eagle’s medium (DMEM) supplemented with 10% (vol/vol) fetal bovine serum (HyClone, Logan, UT, USA), 100 U/mL penicillin G and 100 μg/mL streptomycin. The cells were maintained in a 90 mm culture dish (Nunc, Rochester, NY, USA) and incubated at 37 °C with 5% CO2. To investigate the signaling pathways associated with each receptor in CHO cells, three different reporter systems (pGL3-CRE-luciferase, pGL4-SRE-luciferase, and pGL3-NFAT-RE-luciferase) were utilized to monitor intracellular cAMP/PKA and MAPK/ERK signaling pathways and calcium mobilization of the activated receptors, respectively.
(§2) Prior to the transfection procedure, the cells were initially cultured in 6-well plates (Nunc, Rochester, NY, USA), maintaining a seeding density of approximately 300,000 cells per well. Upon achieving approximately 70% confluence, the cells underwent a co-transfection process. […] The fluorescence activity of the luciferase in each treatment group was measured using a multimode microplate reader (TriStar LB941, Berthold Technologies, Bad Wildbad, Germany). Finally, the fluorescence activity of each treatment group was expressed as a relative increase ratio compared to the control group.
In general terms: In a reporter assay the amount or activity of a reporter protein is the signal.

The test system of assay [2] is chicken CLR + RAMP3. The experiment in a line: Calcium pGL3-NFAT-RE-luciferase reporter assay, CLR + RAMP3 in CHO cells. Conditions: 10^−12 M to 10^−6 M, 6 h, mean ± SEM, n = 3, read-out: EC50, calcium signaling pathway. The protocol: as §1, §2
In assay [3] the test system is chicken CTR + RAMP2. The experiment in a line: cAMP/PKA pGL3-CRE-luciferase reporter assay, CTR + RAMP2 in CHO cells. Conditions: 10^−12 M to 10^−6 M, 6 h, mean ± SEM, n = 3, read-out: EC50, cAMP/PKA signaling pathway. On the procedure:
as §1, §2

The next assay deals with chicken CLR. As to the kind of experiment: cAMP/PKA pGL3-CRE-luciferase reporter assay, CLR + pcDNA in CHO cells. Conditions: for EC50: CLR + pcDNA, CHO cells, pGL3-CRE-luciferase, 10^−12 M to 10^−6 M, 6 h, mean ± SEM, n = 3, read-out: EC50, cAMP/PKA signaling pathway; for activation (cAMP production), in words: independent CLR. On the procedure:
as §1
(§3) Prior to the transfection procedure, the cells were initially cultured in 6-well plates (Nunc, Rochester, NY, USA), maintaining a seeding density of approximately 300,000 cells per well. Upon achieving approximately 70% confluence, the cells underwent a co-transfection process. This procedure entailed the introduction of 700 ng of various luciferase reporter constructs (namely, pGL3-CRE-luciferase, pGL4-SRE-luciferase, or pGL3-NFAT-RE-luciferase) combined with 200 ng of a specific receptor plasmid (CTR or CLR) and 1000 ng of either RAMP1, RAMP2, RAMP3 expression plasmids, or alternatively, the empty pcDNA3.1 (+) vector. A volume of 5.7 μL of PEI MAX was used in 200 μL of buffer following the manufacturer’s protocol. After 24 h of incubation, the transfected CHO cells were subcultured in 96-well plates and passaged for an additional 24 h before peptide treatment. Then, the medium from the 96-well plates was removed, and the cells were treated with chicken CT/CGRP-containing medium (or untreated medium as a control) at concentrations ranging from 10^−12 M to 10^−6 M for 6 h. Subsequently, the cells were harvested for luciferase assays by lysing them in 1 × passive lysis buffer. To measure the luciferase activity of the cell lysate, 40 μL of luciferase assay reagent (Promega, Madison, WI, USA) was mixed with the cell lysate following the manufacturer’s instructions. The fluorescence activity of the luciferase in each treatment group was measured using a multimode microplate reader (TriStar LB941, Berthold Technologies, Bad Wildbad, Germany). Finally, the fluorescence activity of each treatment group was expressed as a relative increase ratio compared to the control group.

The test system of assay [4] is chicken CTR + RAMP1. As to the kind of experiment: cAMP/PKA pGL3-CRE-luciferase reporter assay, CTR + RAMP1 in CHO cells. Particulars: 10^−12 M to 10^−6 M, 6 h, mean ± SEM, n = 3, read-out: EC50, cAMP/PKA signaling pathway. On the procedure:
as §1, §2

Assay [5] concerns chicken CLR + RAMP1. As to the kind of experiment: MAPK/ERK pGL4-SRE-luciferase reporter assay, CLR + RAMP1 in CHO cells. Conditions: 10^−12 M to 10^−6 M, 6 h, mean ± SEM, n = 3, read-out: EC50, MAPK/ERK signaling pathway. The protocol:
as §1, §2

Assay [6] has as its system chicken CTR + RAMP3. As to the kind of experiment: MAPK/ERK pGL4-SRE-luciferase reporter assay, CTR + RAMP3 in CHO cells. Conditions: 10^−12 M to 10^−6 M, 6 h, mean ± SEM, n = 3, read-out: EC50, MAPK/ERK signaling pathway. On the procedure:
as §1, §2

The test system of assay [7] is chicken CTR + RAMP2. The experiment in a line: MAPK/ERK pGL4-SRE-luciferase reporter assay, CTR + RAMP2 in CHO cells. Particulars: 10^−12 M to 10^−6 M, 6 h, mean ± SEM, n = 3, read-out: EC50, MAPK/ERK signaling pathway. The protocol: as §1, §2
Assay [8] relates to chicken CLR + RAMP3. The experiment in a line: MAPK/ERK pGL4-SRE-luciferase reporter assay, CLR + RAMP3 in CHO cells. Particulars: 10^−12 M to 10^−6 M, 6 h, mean ± SEM, n = 3, read-out: EC50, MAPK/ERK signaling pathway. The protocol:
as §1, §2

The subject of assay [9] is chicken CTR. The experiment in a line: cAMP/PKA pGL3-CRE-luciferase reporter assay, CTR + pcDNA in CHO cells. Particulars: for EC50: CTR + pcDNA, CHO cells, pGL3-CRE-luciferase, 10^−12 M to 10^−6 M, 6 h, mean ± SEM, n = 3, read-out: EC50, cAMP/PKA signaling pathway; for activation (cAMP production), in words: independent CTR. The protocol:
as §1, §3

In assay [10] the test system is chicken CTR. As to the kind of experiment: MAPK/ERK pGL4-SRE-luciferase reporter assay, CTR + pcDNA in CHO cells. Particulars: 10^−12 M to 10^−6 M, 6 h, mean ± SEM, n = 3, read-out: EC50, MAPK/ERK signaling pathway. The protocol:
as §1, §2

Assay [11] has as its system chicken CLR + RAMP1. As to the kind of experiment: Calcium pGL3-NFAT-RE-luciferase reporter assay, CLR + RAMP1 in CHO cells. Conditions: 10^−12 M to 10^−6 M, 6 h, mean ± SEM, n = 3, read-out: EC50, calcium signaling pathway. The protocol:
as §1, §2

Assay [12] concerns chicken CLR + RAMP2. The experiment in a line: MAPK/ERK pGL4-SRE-luciferase reporter assay, CLR + RAMP2 in CHO cells. Particulars: 10^−12 M to 10^−6 M, 6 h, mean ± SEM, n = 3, read-out: EC50, MAPK/ERK signaling pathway. On the procedure:
as §1, §2

The subject of assay [13] is chicken CTR. The experiment in a line: Calcium pGL3-NFAT-RE-luciferase reporter assay, CTR + pcDNA in CHO cells. Particulars: 10^−12 M to 10^−6 M, 6 h, mean ± SEM, n = 3, read-out: EC50, calcium signaling pathway. On the procedure:
as §1, §2

In assay [14] the test system is chicken CLR + RAMP2. The experiment in a line: Calcium pGL3-NFAT-RE-luciferase reporter assay, CLR + RAMP2 in CHO cells. Particulars: for EC50: CLR + RAMP2, CHO cells, pGL3-NFAT-RE-luciferase, 10^−12 M to 10^−6 M, 6 h, mean ± SEM, n = 3, read-out: EC50, calcium signaling pathway. On the procedure: as §1
as §3, with “Subsequently, the cells were harvested for luciferase assays by lysing them in 1 × passive lysis buffer. To measure the luciferase activity of the cell lysate, 40 μL of luciferase assay reagent (Promega, Madison, WI, USA) was mixed with the cell lysate following the manufacturer’s instructions.” left out

Assay [15] concerns chicken CTR. As to the kind of experiment: Western blot CREB phosphorylation, CTR in CHO cells. Conditions: 10 nM, 10 min, n = 3. The protocol: (§4) To assess whether the activation of chicken CTR and CLR, along with the presence of RAMPs, can augment the phosphorylation levels of cAMP response element-binding protein (CREB), 200 ng of CTR or CLR expression plasmids were combined with 1000 ng of chicken RAMPs or an empty pcDNA3.1 (+) vector in a 100 μL buffer. The resulting mixture was then transfected into CHO cells in a 12-well plate (Nunc, Rochester, NY, USA) using 3.6 μL of PEI MAX transfection reagent. After a 24 h incubation period, the cells were exposed to chicken CT (10 nM) or CGRP (10 nM) for 10 min. Subsequently, the culture medium was removed, and the cells were lysed according to the manufacturer’s instructions. Western blot analysis was performed to quantify the levels of CREB and phosphorylated CREB (p-CREB). The optical densities were analyzed and normalized using the software, ImageJ 1.52a (National Institutes of Health, Bethesda, MD, USA). The relative expression of p-CREB/CREB was determined by calculating the ratio of the optical density to that of the control without peptide treatment (0 min).

The test system of assay [16] is chicken CTR + RAMP3. The experiment in a line: Calcium pGL3-NFAT-RE-luciferase reporter assay, CTR + RAMP3 in CHO cells. Particulars: 10^−12 M to 10^−6 M, 6 h, mean ± SEM, n = 3, read-out: EC50, calcium signaling pathway. The protocol: as §1, §2
Another assay deals with chicken CTR + RAMPs. As to the kind of experiment: Western blot CREB phosphorylation, CTR + RAMPs in CHO cells. Conditions: 10 nM, 10 min, n = 3. On the procedure: as §4
The subject of assay [17] is chicken CTR + RAMP1. As to the kind of experiment: MAPK/ERK pGL4-SRE-luciferase reporter assay, CTR + RAMP1 in CHO cells. Conditions: 10^−12 M to 10^−6 M, 6 h, mean ± SEM, n = 3, read-out: EC50, MAPK/ERK signaling pathway. The protocol:
as §1, §2

As to calcitonin [CT], the EC50 in the assay on chicken CTR + RAMP3 [1] was 0.44 ± 0.1 nM; with chicken CLR + RAMP3 [2], 32.3 ± 30.3 nM; in the assay on chicken CTR + RAMP2 [3], 0.67 ± 0.1 nM; with chicken CLR it was 0.75 ± 0.21 nM; with chicken CTR + RAMP1 [4], 0.77 ± 0.07 nM; in the assay with chicken CLR + RAMP1 [5] it was 0.89 ± 0.2 nM. Further, the EC50 is 0.38 ± 0.13 nM with chicken CTR + RAMP3 [6]; 2.09 ± 0.42 nM in the assay on chicken CTR + RAMP2 [7]; 1 ± 0.45 nM with chicken CLR + RAMP3 [8]; 0.15 ± 0.04 nM in the assay with chicken CTR [9]; 0.15 ± 0.05 nM in the assay on chicken CTR [10]; 5.81 ± 5.75 nM with chicken CLR + RAMP1 [11]. Besides, the EC50 in the assay with chicken CLR + RAMP2 [12] is 0.38 ± 0.09 nM; in the assay with chicken CTR [13], 61.1 ± 8.55 nM; in the assay with chicken CLR + RAMP2 [14], 1.52 ± 1.32 nM; with chicken CTR + RAMP3 [16], above 100 nM; in the assay with chicken CTR + RAMP1 [17], 1.38 ± 0.24 nM. Also, the “activation (cAMP production), in words” value in the assay on chicken CLR and with chicken CTR [9] was “strongly activates” each time. The “elevation in luciferase activity, calcium signaling” value in the assay on chicken CLR + RAMP2 [14] (CLR + RAMP2, pGL3-NFAT-RE-luciferase, CHO cells) is on record as “modest elevation in luciferase activity”. Also, the “CREB phosphorylation (p-CREB/CREB vs. control, 0 min)” value in the assay with chicken CTR [15] and in the assay with chicken CTR + RAMPs was “significantly increased the CREB phosphorylation” each time.

calcitonin gene-related peptide [CGRP]: the EC50 in the assay with chicken CTR + RAMP3 [1] was 0.24 ± 0.07 nM; with chicken CLR + RAMP3 [2] it was above 100 nM; with chicken CTR + RAMP2 [3], 1.63 ± 0.19 nM; in the assay on chicken CLR it was above 100 nM; in the assay on chicken CTR + RAMP1 [4], 0.1 ± 0.01 nM; with chicken CLR + RAMP1 [5], 0.66 ± 0.11 nM. Also, the EC50 in the assay on chicken CTR + RAMP3 [6] was 0.67 ± 0.24 nM; in the assay with chicken CTR + RAMP2 [7], 10.4 ± 1.12 nM; in the assay with chicken CLR + RAMP3 [8], 4.31 ± 1.73 nM; in the assay on chicken CTR [9], 2.35 ± 0.63 nM; in the assay with chicken CTR [10], 6.73 ± 1.78 nM; with chicken CLR + RAMP1 [11], 0.15 ± 0.11 nM. Besides, the EC50 with chicken CLR + RAMP2 [12] was 90.9 ± 17.4 nM; with chicken CTR [13], above 100 nM; with chicken CLR + RAMP2 [14], above 100 nM; in the assay on chicken CTR + RAMP3 [16], above 100 nM; in the assay on chicken CTR + RAMP1 [17] it was 0.41 ± 0.08 nM. Besides, the “activation (cAMP production), in words” value is listed as “no effect on CLR” in the assay on chicken CLR and “preferentially activates CTR” in the assay on chicken CTR [9]. Moreover, the “CREB phosphorylation (p-CREB/CREB vs. control, 0 min)” value in the assay on chicken CTR [15] and with chicken CTR + RAMPs was “significantly increased the CREB phosphorylation” in each case.
